Results: patent US12115208B2, “Small-molecule adjuvants for antibiotics to address antibiotic resistance” (HIGH POINT UNIVERSITY, priority 2017, dated 2024)
Where two headings read alike, the source gives them in different places.

Columns and labels:
S. aureus 43300 (MRSA) = test: Antibiotic repotentiation (antibiotic MIC with/without compound); format: cell-based, Staphylococcus aureus
Method: (§1) The overnight culture was diluted into fresh CAMHB to a concentration of 5×10^5 CFU/ml. […] On the same plate, a standard microdilution MIC with the tested antibiotics and no added compound was also performed to compare the antibiotic MIC in the presence and absence of compound. […] Fold reductions were calculated by dividing the MIC of the antibiotic without compound by the MIC of the antibiotic in the presence of compound.
(§2) The compounds were then analyzed for antibiotic repotentiation activity. […] The tested strains included USA300, which is a common and particularly virulent strain of community-acquired MRSA.

S. aureus USA300 (MRSA) = test: as above; format: cell-based, Staphylococcus aureus; details: MRSA USA300
Method: as §1, §2

[1] = test system: S. aureus NR-49120 (VRSA); test: as above; format: cell-based, Staphylococcus aureus; details: VRSA NR-49120; for Fold Reduction: antibiotic MIC
Method: as §1

S. aureus USA100 (MRSA) = test: as above; format: cell-based, Staphylococcus aureus; details: MRSA USA100; for Fold Reduction: antibiotic MIC
Method: as §1

[2] = test system: S. aureus ATCC 43300 (MRSA); test: Minimum inhibitory concentration, broth microdilution; format: cell-based, Staphylococcus aureus; details: compound alone; S. aureus ATCC 43300 (MRSA); CAMHB, 18 h; read-out: MIC
Method: as §2

[3] = test system: S. epidermidis ATCC 49461 biofilm; test: Biofilm inhibition, crystal violet assay; format: cell-based, Staphylococcus epidermidis; details: read-out: Inhibition of biofilm formation IC50
Method: A standard static crystal violet assay was used to quantify biofilm inhibition.^45 Cultures of S. aureus or S. epidermidis were grown overnight in TSBG (tryptic soy broth with 5% glucose) at 37° C. with shaking. These cultures were used to inoculate fresh TSBG to a calculated optical density of 0.01 at 600 nm (OD600). […] Untreated aliquots were used as a positive control and water served as a negative control. 100 μl of these suspensions were added to the wells of a 96-well polyvinylchloride microtiter plate. […] After incubation, media was discarded and the plates were washed with water to remove non-adherent cells. Adherent biofilms were stained with 110 μl of crystal violet (0.1% in water) and incubated at room temperature for thirty minutes. The crystal violet staining solution was discarded and plates were washed with water to remove excess stain. The resulting stained biofilms were solubilized with 200 μL of 95% ethanol for 10 minutes. 125 μl of the ethanol solutions were transferred to a clear polystyrene microtiter plate for evaluation. Absorbance at 540 nm was recorded using a BioTek Synergy H1 microplate reader. The absorbance of the negative control lanes was subtracted from the experimental values to account for background staining. Percent inhibition was calculated by comparison of the absorbance values of control versus treated wells under identical conditions.

[4] = +50 μM compound, S. aureus 43300 (MRSA)
[5] = oxacillin MIC, +50 μM compound, S. aureus 43300 (MRSA)
[6] = Staphylococcus epidermidis, ATCC49461, 30 h
[7] = +100 μM compound, S. aureus 43300 (MRSA)
[8] = oxacillin MIC, +100 μM compound, S. aureus 43300 (MRSA)
[9] = +31.25 μM compound, S. aureus 43300 (MRSA)
[10] = oxacillin MIC, +31.25 μM compound, S. aureus 43300 (MRSA)
[11] = +75 μM compound, S. aureus 43300 (MRSA)
[12] = oxacillin MIC, +75 μM compound, S. aureus 43300 (MRSA)

CCN1c2ccccc2CCc2ccc(Cl)cc21 [II-2]
Oxacillin MIC (S. aureus 43300 (MRSA); [4]): 32 µg/mL
Fold Reduction (S. aureus 43300 (MRSA); [5]): 1

O=c1c2ccccc2ccc2ccccc12 [Compound I-3]
Oxacillin MIC (S. aureus 43300 (MRSA); [4]): 16 µg/mL
Fold Reduction (S. aureus 43300 (MRSA); [5]): 1

NC(=O)N1c2ccccc2C=Cc2ccccc21 [Compound I-2]
Oxacillin MIC (S. aureus 43300 (MRSA); [4]): 16 µg/mL
Fold Reduction (S. aureus 43300 (MRSA); [5]): 1

Cc1nnc(SCC2=C(C(=O)O)N3C(=O)[C@@H](NC(=O)Cn4cnnn4)[C@H]3SC2)s1 [Cefazolin]
MIC of antibiotic (S. aureus 43300 (MRSA); +Amoxapine (150 μM), S. aureus 43300 (MRSA)): 0.5 µg/mL
MIC of antibiotic (S. aureus 43300 (MRSA); +Loratadine 25 μM, MRSA 43300): 16 µg/mL
MIC of antibiotic (S. aureus 43300 (MRSA); +Loratadine 50 μM, MRSA 43300): 1 µg/mL
Fold Reduction (S. aureus 43300 (MRSA); antibiotic MIC, +Amoxapine (150 μM), S. aureus 43300 (MRSA)): 32
Fold Reduction (S. aureus 43300 (MRSA); antibiotic MIC, +Loratadine 25 μM, MRSA 43300): 4
Fold Reduction (S. aureus 43300 (MRSA); antibiotic MIC, +Loratadine 50 μM, MRSA 43300): 64
MIC of antibiotic (S. aureus 43300 (MRSA); antibiotic alone, no compound, S. aureus 43300 (MRSA)): 16 µg/mL
MIC of antibiotic (S. aureus 43300 (MRSA); antibiotic alone, S. aureus ATCC 43300 (MRSA)): 64 µg/mL
MIC of antibiotic (S. aureus USA300 (MRSA); +Loratadine 25 μM): 4 µg/mL
MIC of antibiotic (S. aureus USA300 (MRSA); +Loratadine 50 μM): 1 µg/mL
MIC of antibiotic (S. aureus USA300 (MRSA); antibiotic alone): 32 µg/mL
MIC of antibiotic ([1]; +Loratadine 25 μM): 32 µg/mL
MIC of antibiotic ([1]; +Loratadine 50 μM): 8 µg/mL
Fold Reduction ([1]; +Loratadine 25 μM): 4
Fold Reduction ([1]; +Loratadine 50 μM): 16
MIC of antibiotic ([1]; antibiotic alone): 128 µg/mL
MIC of antibiotic (S. aureus USA100 (MRSA); +Loratadine 25 μM): 128 µg/mL
MIC of antibiotic (S. aureus USA100 (MRSA); +Loratadine 50 μM): 1 µg/mL
Fold Reduction (S. aureus USA100 (MRSA); +Loratadine 25 μM): 2
Fold Reduction (S. aureus USA100 (MRSA); +Loratadine 50 μM): 256
MIC of antibiotic (S. aureus USA100 (MRSA); antibiotic alone): 256 µg/mL

O=C1CCCNc2cc(Cl)ccc21 [Compound I-6]
Oxacillin MIC (S. aureus 43300 (MRSA); [4]): 16 µg/mL
Fold Reduction (S. aureus 43300 (MRSA); [5]): 1

Cc1cnc2c(ccc3c(C)c(C)cnc32)c1C [Compound V-14]
MIC [2]: 3.125 µM
Oxacillin MIC (S. aureus 43300 (MRSA); +0.78 μM compound, S. aureus 43300 (MRSA)): 32 µg/mL
Fold Reduction (S. aureus 43300 (MRSA); oxacillin MIC, +0.78 μM compound, S. aureus 43300 (MRSA)): 1
IC50 ([3]; 30 h): > 100 µM

Clc1ccc2c(c1)C(NC1CCCCC1)=Nc1ccccc1O2 [II-10]
Oxacillin MIC (S. aureus 43300 (MRSA); [4]): 32 µg/mL
Fold Reduction (S. aureus 43300 (MRSA); [5]): 1

CCCCN1CCC(=C2c3ccc(Cl)cc3CCc3cccnc32)CC1 [III-1, 11-(1-butylpiperidin-4-ylidene)-8-chloro-6,11-dihydro-5H-benzo[5,6]cyclohepta[1,2-b]pyridine]
Fold Reduction (S. aureus 43300 (MRSA); [5]): 1
IC50 [3, 6]: > 80 µM

c1ccc(-c2ccnc3c2ccc2c(-c4ccccc4)ccnc23)cc1 [Compound V-13]
MIC [2]: 6.25 µM
Oxacillin MIC (S. aureus 43300 (MRSA); +[…] compound, S. aureus 43300 (MRSA)): 16 µg/mL
IC50 ([3]; 30 h): > 100 µM

C1=Cc2ccccc2Nc2ccccc21 [Compound I-4]
Oxacillin MIC (S. aureus 43300 (MRSA); [4]): 16 µg/mL
Fold Reduction (S. aureus 43300 (MRSA); [5]): 1

CCCCCN1CCC(=C2c3ccc(Cl)cc3CCc3cccnc32)CC1 [III-2, 8-chloro-11-(1-pentylpiperidin-4-ylidene)-6,11-dihydro-5H-benzo[5,6]cyclohepta[1,2-b]pyridine]
Fold Reduction (S. aureus 43300 (MRSA); [5]): 32
IC50 [3, 6]: 26.9 µM

CCCCCN1c2ccccc2CCc2ccc(Cl)cc21 [II-3]
Oxacillin MIC (S. aureus 43300 (MRSA); [4]): 16 µg/mL
Fold Reduction (S. aureus 43300 (MRSA); [5]): 2

Cc1ccnc2c1NC(=O)c1cccnc1N2C1CC1 [Compound I-1]
Oxacillin MIC (S. aureus 43300 (MRSA); [4]): 16 µg/mL
Fold Reduction (S. aureus 43300 (MRSA); [5]): 1

O=[N+]([O-])c1cc2cccnc2c2ncccc12 [Compound V-7]
MIC [2]: 31.25 µM
Oxacillin MIC (S. aureus 43300 (MRSA); +7.8125 μM compound, S. aureus 43300 (MRSA)): 16 µg/mL
Fold Reduction (S. aureus 43300 (MRSA); oxacillin MIC, +7.8125 μM compound, S. aureus 43300 (MRSA)): 2
IC50 ([3]; 30 h): > 100 µM

CCCCCCCCNC1=Nc2ccccc2Oc2ccc(Cl)cc21 [II-9]
Oxacillin MIC (S. aureus 43300 (MRSA); [4]): 32 µg/mL
Fold Reduction (S. aureus 43300 (MRSA); [5]): 1

Clc1ccc2c(c1)N(Cc1ccccc1)c1ccccc1CC2 [II-6]
Oxacillin MIC (S. aureus 43300 (MRSA); [4]): 32 µg/mL
Fold Reduction (S. aureus 43300 (MRSA); [5]): 1

c1cnc2ccc3ncccc3c2c1 [Compound V-2]
MIC [2]: 1000 µM
Oxacillin MIC (S. aureus 43300 (MRSA); [7]): 32 µg/mL
Fold Reduction (S. aureus 43300 (MRSA); [8]): 1
IC50 ([3]; 30 h): 84.6 µM

Clc1ccc2ccc3cccnc3c2n1 [Compound V-5]
MIC [2]: 1000 µM
Oxacillin MIC (S. aureus 43300 (MRSA); [7]): 32 µg/mL
Fold Reduction (S. aureus 43300 (MRSA); [8]): 1
IC50 ([3]; 30 h): 38.5 µM

CCCCCCCCCN1CCC(=C2c3ccc(Cl)cc3CCc3cccnc32)CC1 [III-3, 8-chloro-11-(1-nonylpiperidin-4-ylidene)-6,11-dihydro-5H-benzo[5,6]cyclohepta[1,2-b]pyridine]
Fold Reduction (S. aureus 43300 (MRSA); [5]): 1
IC50 [3, 6]: > 80 µM

Oc1ccnc2c1ccc1c(O)ccnc12 [Compound V-11]
MIC [2]: 250 µM
Oxacillin MIC (S. aureus 43300 (MRSA); +62.5 μM compound, S. aureus 43300 (MRSA)): 32 µg/mL
Fold Reduction (S. aureus 43300 (MRSA); oxacillin MIC, +62.5 μM compound, S. aureus 43300 (MRSA)): 1
IC50 ([3]; 30 h): > 100 µM

c1ccc(-c2ccccn2)nc1 [Compound V-1]
MIC [2]: >2000 µM
Oxacillin MIC (S. aureus 43300 (MRSA); [7]): 32 µg/mL
Fold Reduction (S. aureus 43300 (MRSA); [8]): 1
IC50 ([3]; 30 h): > 100 µM

c1cnc2c(c1)ccc1cccnc12 [Compound V-4]
MIC [2]: 125 µM
Oxacillin MIC (S. aureus 43300 (MRSA); [9]): 8 µg/mL
Fold Reduction (S. aureus 43300 (MRSA); [10]): 4
IC50 ([3]; 30 h): 51.8 µM

Clc1ccc2c(c1)CCc1cccnc1C2=C1CCN(Cc2ccccc2)CC1 [III-4]
Fold Reduction (S. aureus 43300 (MRSA); [5]): 1
IC50 [3, 6]: > 50 µM

CCCCCNC1=Nc2ccccc2Oc2ccc(Cl)cc21 [II-8]
Oxacillin MIC (S. aureus 43300 (MRSA); [4]): 32 µg/mL
Fold Reduction (S. aureus 43300 (MRSA); [5]): 1

CCCCCCCCN1c2ccccc2CCc2ccc(Cl)cc21 [II-4]
Oxacillin MIC (S. aureus 43300 (MRSA); [4]): 32 µg/mL
Fold Reduction (S. aureus 43300 (MRSA); [5]): 1

Cc1cc2cccnc2c2ncccc12 [Compound V-8]
MIC [2]: 125 µM
Oxacillin MIC (S. aureus 43300 (MRSA); [9]): 2 µg/mL
Fold Reduction (S. aureus 43300 (MRSA); [10]): 16
IC50 ([3]; 30 h): 78.9 µM

C=CCN1c2ccccc2CCc2ccc(Cl)cc21 [II-5]
Oxacillin MIC (S. aureus 43300 (MRSA); [4]): 8 µg/mL
Fold Reduction (S. aureus 43300 (MRSA); [5]): 4

Brc1cc2ccccc2c2ccccc12 [Compound V-3]
MIC [2]: >250 µM
Oxacillin MIC (S. aureus 43300 (MRSA); [11]): 8 µg/mL
Fold Reduction (S. aureus 43300 (MRSA); [12]): 4
IC50 ([3]; 30 h): > 100 µM

CC(C)c1ccc(CN2CCC(=C3c4ccc(Cl)cc4CCc4cccnc43)CC2)cc1 [III-5, 8-chloro-11-(1-(4-isopropylbenzyl)piperidin-4-ylidene)-6,11-dihydro-5H-benzo[5,6]cyclohepta[1,2-b]pyridine]
Fold Reduction (S. aureus 43300 (MRSA); [5]): 16
IC50 [3, 6]: 62.2 µM

COc1ccnc2c1ccc1c(OC)ccnc12 [Compound V-12]
MIC [2]: 31.25 µM
Oxacillin MIC (S. aureus 43300 (MRSA); +7.8 μM compound, S. aureus 43300 (MRSA)): 4 µg/mL
Fold Reduction (S. aureus 43300 (MRSA); oxacillin MIC, +7.8 μM compound, S. aureus 43300 (MRSA)): 8
IC50 ([3]; 30 h): > 100 µM

NC1=Nc2ccccc2Oc2ccc(Cl)cc21 [II-7]
Oxacillin MIC (S. aureus 43300 (MRSA); [4]): 32 µg/mL
Fold Reduction (S. aureus 43300 (MRSA); [5]): 1

Cc1ccc2ccc3ccc(C)nc3c2n1 [Compound V-9]
MIC [2]: 125 µM
Oxacillin MIC (S. aureus 43300 (MRSA); [9]): 32 µg/mL
Fold Reduction (S. aureus 43300 (MRSA); [10]): 1
IC50 ([3]; 30 h): < 5 µM

Clc1ccnc2c1ccc1c(Cl)ccnc12 [Compound V-10]
MIC [2]: >500 µM
Oxacillin MIC (S. aureus 43300 (MRSA); [11]): 32 µg/mL
Fold Reduction (S. aureus 43300 (MRSA); [12]): 1
IC50 ([3]; 30 h): 27.3 µM
